# PMC6131539, “Behavioral Effects of a Potential Novel TAAR1 Antagonist” (Frontiers in Pharmacology, 2018)
# How the values were obtained:
# TAAR1-KO mice = assay: Basal locomotor activity in TAAR1-KO mice; format: in vivo; settings: 5 and 25 mg/kg alone, 60 min
# Procedure: The Taarl^-/- (TAAR1-KO) mice were obtained from Lundbeck ([Wolinsky et al., 2007]). All wild type (WT) and TAAR1-KO mice used for experiments were generated from TAAR1-KO heterozygous mice in a C57BL/6J x 129S1/Sv mixed background. Experimentally naïve mice, of at least 12 weeks of age, were used for all behavioral experiments. The mice were randomly assigned to treatment or control groups, balanced by sex and weight. Locomotor activity was assessed using the automated locomotor analysis monitors (Omnitech Electronics, Columbus, OH, United States). The apparatus included four open field monitors. Each Open Field monitor consisted of sets of 16 light beams arrayed in the horizontal X and Y axes. The hardware detected beams broken by the animal, which allowed the software to determine the location of the mouse in the cage. Total distance covered by mice was used to characterize locomotor activity of the animals. The monitors were divided into four compartments (20 cm × 20 cm). Animals were tested individually for defined periods with 5-min intervals. The mice were first weighed and then placed into the apparatus, allowing for 30 min habituation. […] The locomotor activity was then measured for additional 1 h. […] The locomotor activity was assessed for 60 min following the injection. […]
# Serotonin Transporter = Serotonin Transporter (Homo sapiens, UniProt P31645); assay: PDSP binding, secondary screen
# Chain of Serotonin Transporter (P31645 whole entry): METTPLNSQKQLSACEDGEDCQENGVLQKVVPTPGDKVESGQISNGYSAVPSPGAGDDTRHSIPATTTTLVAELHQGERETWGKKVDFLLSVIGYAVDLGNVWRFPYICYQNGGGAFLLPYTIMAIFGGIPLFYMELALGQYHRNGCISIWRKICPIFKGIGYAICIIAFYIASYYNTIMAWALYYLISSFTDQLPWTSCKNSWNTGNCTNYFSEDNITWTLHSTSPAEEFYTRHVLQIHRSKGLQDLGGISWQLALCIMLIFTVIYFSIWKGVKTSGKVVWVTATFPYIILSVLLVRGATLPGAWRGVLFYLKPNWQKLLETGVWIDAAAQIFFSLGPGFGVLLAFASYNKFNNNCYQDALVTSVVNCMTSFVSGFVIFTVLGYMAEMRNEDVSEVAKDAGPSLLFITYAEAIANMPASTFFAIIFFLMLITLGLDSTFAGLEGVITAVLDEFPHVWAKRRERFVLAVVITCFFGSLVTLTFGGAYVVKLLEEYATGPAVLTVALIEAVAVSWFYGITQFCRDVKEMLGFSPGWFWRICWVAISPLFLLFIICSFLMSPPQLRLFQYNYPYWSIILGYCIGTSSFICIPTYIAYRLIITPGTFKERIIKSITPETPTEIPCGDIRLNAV
# Procedure: (§1) This was achieved through the identification of potential pharmacological targets of compound 22 using the Psychoactive Drug Screening Program (PDSP) at University of North Carolina-Chapel-Hill. PDSP provides a platform for screening novel psychoactive compounds on human proteins expressed in the central nervous system in order to identify their biological target(s) ([Besnard et al., 2012]). Binding studies were done on 47 targets at a single dose of compound 22 (10 μM; Supplementary Table S1). This primary screen yielded a total of 5 hits for compound 22 (Table 2). These hits were the serotonin, dopamine, and norepinephrine transporters, as well as the sigma 1 and sigma 2 receptors.
# Dopamine Transporter = Dopamine Transporter (Homo sapiens, UniProt Q01959); assay: PDSP binding, secondary screen
# Chain of Dopamine Transporter (Q01959 whole entry): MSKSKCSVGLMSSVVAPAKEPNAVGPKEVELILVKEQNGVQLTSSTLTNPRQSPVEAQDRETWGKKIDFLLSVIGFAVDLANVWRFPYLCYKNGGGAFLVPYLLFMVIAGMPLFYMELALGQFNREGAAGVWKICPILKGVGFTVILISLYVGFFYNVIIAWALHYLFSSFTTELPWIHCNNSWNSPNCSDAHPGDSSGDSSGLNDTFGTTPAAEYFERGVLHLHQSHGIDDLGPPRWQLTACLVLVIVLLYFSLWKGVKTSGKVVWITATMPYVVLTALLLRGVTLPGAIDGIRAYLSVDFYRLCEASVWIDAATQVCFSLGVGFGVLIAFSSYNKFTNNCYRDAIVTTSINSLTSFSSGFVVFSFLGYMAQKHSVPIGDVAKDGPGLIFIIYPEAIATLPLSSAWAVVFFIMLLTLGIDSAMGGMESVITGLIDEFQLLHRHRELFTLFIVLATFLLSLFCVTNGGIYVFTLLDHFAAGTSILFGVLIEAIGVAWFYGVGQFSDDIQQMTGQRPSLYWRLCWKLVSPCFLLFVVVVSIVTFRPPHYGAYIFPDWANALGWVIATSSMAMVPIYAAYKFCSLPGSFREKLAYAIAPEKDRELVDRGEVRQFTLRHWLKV
# Procedure: as §1
# [1] = biological target: Norepinephrine Transporter (Homo sapiens, UniProt P23975); assay: PDSP binding, secondary screen
# Chain of Norepinephrine Transporter (P23975 whole entry): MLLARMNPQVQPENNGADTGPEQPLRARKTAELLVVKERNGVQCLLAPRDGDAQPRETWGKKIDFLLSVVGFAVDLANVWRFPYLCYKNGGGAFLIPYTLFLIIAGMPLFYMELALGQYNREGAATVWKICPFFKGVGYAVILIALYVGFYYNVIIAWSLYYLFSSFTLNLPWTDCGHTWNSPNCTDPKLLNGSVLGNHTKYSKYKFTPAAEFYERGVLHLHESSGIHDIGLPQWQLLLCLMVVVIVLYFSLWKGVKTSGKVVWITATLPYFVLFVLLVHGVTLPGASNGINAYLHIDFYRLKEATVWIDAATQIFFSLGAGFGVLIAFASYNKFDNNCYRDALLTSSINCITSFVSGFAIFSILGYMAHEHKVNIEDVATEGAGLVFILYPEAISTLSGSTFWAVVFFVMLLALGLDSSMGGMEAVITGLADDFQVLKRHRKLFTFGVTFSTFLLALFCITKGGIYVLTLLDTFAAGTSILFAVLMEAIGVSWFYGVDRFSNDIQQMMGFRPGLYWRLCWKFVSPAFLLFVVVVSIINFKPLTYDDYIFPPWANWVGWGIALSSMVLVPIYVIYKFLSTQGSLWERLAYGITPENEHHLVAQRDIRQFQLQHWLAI
# Procedure: as §1
structure (smiles),measurement,setting,value
Clc1ccc(CNCc2ccc(Cn3cncn3)cc2)c(Cl)c1 [compound 22],effect on basal locomotor activity,TAAR1-KO mice,did not significantly alter
same,Ki,Serotonin Transporter,1800 nM
same,Ki,Dopamine Transporter,1050 nM
same,Ki,[1],1900 nM
